Measured values as given in US20250368627A1, “PYRAZOLESULFONAMIDES AS ANTITUMOR AGENTS” (Peloton Therapeutics, Inc., a fully owned subsidiary of …, priority 2019, published 2025).
One block for each compound: values may come before it.

What was measured:
[1] = target: T1, DDB1DB/DCAF15 and RBM39 R1R2 complex (Homo sapiens, UniProt Q14498+Q66K64); experiment: DCAF15 RBM39 Complex Formation Assay (FRET); format: binding; details: FRET ratio Em 665/Em 615, incubated overnight at 4° C.
T1 construct: Amino acids 150 to 331 of RBM39 were cloned into pGEX4T3; GST (from vector pGEX4T3); TEV cleavage site (N); made in house; host or cells: DDB1DB/His-DCAF15: baculovirus/Sf9 co-expression; RBM39 R1R2: E. coli (pGEX4T3)
Description: LANCE Eu-W1024 Anti-6×His and SureLight Allophycocyanin-anti-FLAG antibodies were purchased from Perkin Elmer. Human DDB1DB and His-tagged DCAF15 were co-expressed in baculovirus/sf9 system. While full length DDB1 contains three 7-bladed propellers termed A, B, and C, DDB1DB has only propeller A (amino acids 1 to 395) and C (amino acids 709-1140). The His-tagged DCAF15 contains six histidine residues directly preceding the DCAF15 sequence without any linker. An RBM39 fragment containing RRM1 and RRM2 was expressed in E. coli. Amino acids 150 to 331 of RBM39 were cloned into pGEX4T3 with an N-terminal TEV cleavage site and a C-terminal FLAG tag.
A compound of the present disclosure in DMSO (2 μL) was transferred to a 384-well assay plate. Compound was added in 14 points, 3-fold serial dilution (1 μM to 0.6 pico molar) in DMSO. […] FRET assay buffer (25 mM HEPES, pH 7.5, 100 mM NaCl, […], 0.5 mM TCEP, 0.005% Tween-20, 0.2 nM Eu—W1024 Anti-6×His, 50 nM SureLight Allophycocyanin-anti-FLAG, 20 nM DDB1DB/DCAF15, 50 nM RBM39 R1R2) was added and the resulting solution was incubated overnight at 4° C. The plate was placed in a plate reader (Spark 10) with excitation at 1=340 nm and emissions monitored at 1=665 nm and 1=615 nm, and the FRET ratio (Em 665/Em 615) was determined. Low signal controls containing no compound and high signal controls containing 10 mM indisulam were measured for each plate.
EC50 values were calculated using Dotmatics template equation for 4-parameter fit. Results are expressed as % formation using the following equation: […]

[2] = test system: HCT116 human colorectal carcinoma cells; experiment: CellTiter-Glo Luminescent Cell Viability Assay; format: cell-based; details: HCT-116, 72 h, 3 days
Protocol: HCT116 human colorectal carcinoma cells were used in these experiments. HCT116 cells were obtained from ATCC. CellTiter-Glo® Luminescent Cell Viability Assay Reagent was obtained from Promega.
About 3,000 cells were seeded into 96-well plate with […] of media (DMEM supplemented with 10% FBS, 100 units penicillin, and […] streptomycin per mL) the day before the experiment. For compound treatment, the master plate was prepared as follows: 100× compound stocks were prepared in a 96-well plate by 1 to 3 serial dilutions of 0.5 mM DMSO stocks. Each master plate contained serial dilution of 8 compounds, including the control compound E7820. […] of 100× compound stock was added to each well of the assay plate to give final concentrations of […]. Each concentration was tested in triplicate. After 3 days, cell viability was determined using CellTiter-Glo Luminescent Cell Viability Assay Reagent following the manufacturer's recommended protocol. Briefly, […] of CellTiter-Glo reagent was added to each well of the assay plate and the contents were mixed for 3 minutes at 600 rpm on a shaker (Thermomixer R). The plate was immediately placed in a plate reader (Synergy 2) and the luminescence signal (0.5 second per well integration time) was determined. IC50 values were calculated using Dotmatics software.

T1 sequence (Q66K64 whole entry, the tested form may be a part): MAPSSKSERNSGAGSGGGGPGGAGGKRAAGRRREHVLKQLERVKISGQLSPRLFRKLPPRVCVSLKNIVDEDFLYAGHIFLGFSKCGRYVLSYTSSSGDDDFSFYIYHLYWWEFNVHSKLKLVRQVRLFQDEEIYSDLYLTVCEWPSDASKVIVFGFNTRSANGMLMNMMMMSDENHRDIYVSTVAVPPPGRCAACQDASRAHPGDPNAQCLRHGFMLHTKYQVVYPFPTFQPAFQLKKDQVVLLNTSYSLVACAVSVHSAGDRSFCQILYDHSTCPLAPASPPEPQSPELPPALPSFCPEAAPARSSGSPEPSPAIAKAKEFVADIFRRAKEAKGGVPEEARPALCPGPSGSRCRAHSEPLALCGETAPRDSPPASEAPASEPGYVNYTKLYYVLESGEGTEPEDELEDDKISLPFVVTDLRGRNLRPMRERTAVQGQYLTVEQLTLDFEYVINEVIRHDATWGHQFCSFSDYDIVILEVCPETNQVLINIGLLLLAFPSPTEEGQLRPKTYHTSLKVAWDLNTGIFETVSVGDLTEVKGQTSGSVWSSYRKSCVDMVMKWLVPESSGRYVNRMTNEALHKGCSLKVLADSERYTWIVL
T1 sequence (Q14498 150-331): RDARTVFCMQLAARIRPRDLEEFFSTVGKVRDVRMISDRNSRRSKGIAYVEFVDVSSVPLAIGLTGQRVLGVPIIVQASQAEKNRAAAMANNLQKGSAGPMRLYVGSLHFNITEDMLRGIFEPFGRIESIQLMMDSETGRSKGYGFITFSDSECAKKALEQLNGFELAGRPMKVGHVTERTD
T1 sequence (Q16531 with tags, fused parts or gaps DEL396-708 partner): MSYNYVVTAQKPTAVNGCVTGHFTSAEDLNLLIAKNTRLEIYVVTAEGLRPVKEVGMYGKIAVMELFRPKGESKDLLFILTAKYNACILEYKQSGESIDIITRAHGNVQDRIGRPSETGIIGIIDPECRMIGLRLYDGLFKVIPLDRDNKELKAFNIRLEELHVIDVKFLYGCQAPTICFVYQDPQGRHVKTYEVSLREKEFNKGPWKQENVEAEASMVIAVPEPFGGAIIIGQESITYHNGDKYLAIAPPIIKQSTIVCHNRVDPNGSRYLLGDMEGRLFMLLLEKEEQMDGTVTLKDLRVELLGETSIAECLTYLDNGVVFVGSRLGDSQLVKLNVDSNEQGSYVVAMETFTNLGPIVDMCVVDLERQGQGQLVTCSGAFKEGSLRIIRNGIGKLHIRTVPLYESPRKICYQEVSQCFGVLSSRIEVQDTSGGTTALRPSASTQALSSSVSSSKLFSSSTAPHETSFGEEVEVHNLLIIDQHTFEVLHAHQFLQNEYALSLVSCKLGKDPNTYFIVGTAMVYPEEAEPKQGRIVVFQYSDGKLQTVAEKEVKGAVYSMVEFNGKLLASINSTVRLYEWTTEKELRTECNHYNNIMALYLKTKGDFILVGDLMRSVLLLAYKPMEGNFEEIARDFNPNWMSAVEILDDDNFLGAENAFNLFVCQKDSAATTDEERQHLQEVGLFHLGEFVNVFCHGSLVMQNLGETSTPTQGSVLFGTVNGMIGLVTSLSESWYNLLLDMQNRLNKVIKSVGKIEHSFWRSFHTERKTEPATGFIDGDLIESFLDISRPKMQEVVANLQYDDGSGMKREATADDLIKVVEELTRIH

SMILES: CC(C)(O)Cn1ncc(S(=O)(=O)Nc2ccc(Cl)c3c(C#N)c[nH]c23)c1N [Compound 289, 5-amino-N-(4-chloro-3-cyano-1H-indol-7-yl)-1-(2-hydroxy-2-methyl-propyl)pyrazole-4-sulfonamide]
IC50 [1]: < 250 nM
EC50 [2]: 250 to 1000 nM

SMILES: CC(C)(O)CCn1cc(S(=O)(=O)Nc2ccc(Cl)c3c(C#N)c[nH]c23)cn1 [Compound 220, N-(4-chloro-3-cyano-1H-indol-7-yl)-1-(3-hydroxy-3-methyl-butyl)pyrazole-4-sulfonamide]
IC50 [1]: < 250 nM
EC50 [2]: 250 to 1000 nM

SMILES: N#Cc1c[nH]c2c(NS(=O)(=O)c3cnn(C(F)CO)c3)ccc(F)c12 (centres unmarked) [Compound 298, N-(3-cyano-4-fluoro-1H-indol-7-yl)-1-(1-fluoro-2-hydroxy-ethyl)pyrazole-4-sulfonamide]
IC50 [1]: < 250 nM
EC50 [2]: 250 to 1000 nM

SMILES: C[C@@H](O)[C@H](C)n1cc(S(=O)(=O)Nc2ccc(F)c3c(C#N)c[nH]c23)cn1 [Compound 233, N-(3-cyano-4-fluoro-1H-indol-7-yl)-1-[(1S,2R)-2-hydroxy-1-methyl-propyl]pyrazole-4-sulfonamide]
IC50 [1]: < 250 nM
EC50 [2]: 250 to 1000 nM

SMILES: O=S(=O)(Nc1ccc(Cl)c2c(Cl)c[nH]c12)c1cnn(CCO)c1 [Compound 163, N-(3,4-dichloro-1H-indol-7-yl)-1-(2-hydroxyethyl)pyrazole-4-sulfonamide]
IC50 [1]: < 250 nM
EC50 [2]: < 250 nM

SMILES: C[C@H]([C@@H](C)O)n1cc(S(=O)(=O)Nc2ccc(F)c3c(C#N)c[nH]c23)cn1 [Compound 288, N-(3-cyano-4-fluoro-1H-indol-7-yl)-1-[(1R,2R)-2-hydroxy-1-methyl-propyl]pyrazole-4-sulfonamide]
IC50 [1]: < 250 nM
EC50 [2]: 250 to 1000 nM

SMILES: NC(=O)Cn1cc(S(=O)(=O)n2cc(S(=O)(=O)Nc3cccc4c(Cl)c[nH]c34)cn2)cn1 [Compound 17, 2-[4-[4-[(3-chloro-1H-indol-7-yl)sulfamoyl]pyrazol-1-yl]sulfonylpyrazol-1-yl]acetamide]
IC50 [1]: < 250 nM
EC50 [2]: 250 to 1000 nM

SMILES: NCCn1cc(S(=O)(=O)Nc2cccc3c(Cl)c[nH]c23)cn1 [Compound 34, 1-(2-aminoethyl)-N-(3-chloro-1H-indol-7-yl)pyrazole-4-sulfonamide]
IC50 [1]: < 250 nM
EC50 [2]: > 1000 nM

SMILES: CC(C)(CO)n1cc(S(=O)(=O)Nc2ccc(F)c3c(C#N)c[nH]c23)cn1 [Compound 224, N-(3-cyano-4-fluoro-1H-indol-7-yl)-1-(2-hydroxy-1,1-dimethyl-ethyl)pyrazole-4-sulfonamide]
IC50 [1]: < 250 nM
EC50 [2]: 250 to 1000 nM

SMILES: CS(=O)(=O)Cn1cc(S(=O)(=O)Nc2ccc(Cl)c3c(C#N)c[nH]c23)cn1 [Compound 182, N-(4-chloro-3-cyano-1H-indol-7-yl)-1-(methylsulfonylmethyl)pyrazole-4-sulfonamide]
IC50 [1]: < 250 nM
EC50 [2]: 250 to 1000 nM

SMILES: O=S(=O)(Nc1cccc2c(Cl)c[nH]c12)c1cnn(CC2CC(F)(F)C2)c1 [Compound 53, N-(3-chloro-1H-indol-7-yl)-1-[(3,3-difluorocyclobutyl)methyl]pyrazole-4-sulfonamide]
IC50 [1]: < 250 nM
EC50 [2]: > 1000 nM

SMILES: Cn1ncc(S(=O)(=O)Nc2ccc(F)c3c(C#N)c[nH]c23)c1N [Compound 282, 5-amino-N-(3-cyano-4-fluoro-1H-indol-7-yl)-1-methyl-pyrazole-4-sulfonamide]
IC50 [1]: < 250 nM
EC50 [2]: 250 to 1000 nM

SMILES: Cc1ccc(NS(=O)(=O)c2cnn(CC(C)(C)O)c2)c2[nH]cc(C#N)c12 [Compound 108, N-(3-Cyano-4-methyl-1H-indol-7-yl)-1-(2-hydroxy-2-methyl-propyl)pyrazole-4-sulfonamide]
IC50 [1]: < 250 nM
EC50 [2]: 250 to 1000 nM

SMILES: O=S(=O)(Nc1ccc(C(F)(F)F)c2c(Cl)c[nH]c12)c1cnn(CC(F)F)c1 [Compound 103, N-[3-chloro-4-(trifluoromethyl)-1H-indol-7-yl]-1-(2,2-difluoroethyl)pyrazole-4-sulfonamide]
IC50 [1]: < 250 nM
EC50 [2]: > 1000 nM

SMILES: O=S(=O)(Nc1ccc(Cl)c2c(Cl)c[nH]c12)c1cnn(C(CO)CO)c1 [Compound 176, N-(3,4-dichloro-1H-indol-7-yl)-1-[2-hydroxy-1-(hydroxymethyl)ethyl]pyrazole-4-sulfonamide]
IC50 [1]: < 250 nM
EC50 [2]: 250 to 1000 nM

SMILES: Cn1cc(S(=O)(=O)Nc2ccc(F)c3c(Cl)c[nH]c23)cn1 [Compound 54, N-(3-chloro-4-fluoro-1H-indol-7-yl)-1-methyl-pyrazole-4-sulfonamide]
IC50 [1]: < 250 nM
EC50 [2]: 250 to 1000 nM

SMILES: COCC(CO)n1cc(S(=O)(=O)Nc2ccc(Cl)c3c(C#N)c[nH]c23)cn1 (centres unmarked) [Compound 262, N-(4-chloro-3-cyano-1H-indol-7-yl)-1-[1-(hydroxymethyl)-2-methoxy-ethyl]pyrazole-4-sulfonamide]
IC50 [1]: < 250 nM
EC50 [2]: 250 to 1000 nM

Now from value to compound:

IC50 [1]: < 250 nM
EC50 [2]: 250 to 1000 nM
SMILES: Cc1ccc(NS(=O)(=O)c2cnn(C3CCCC3)c2)c2[nH]cc(C#N)c12 [Compound 88, N-(3-cyano-4-methyl-1H-indol-7-yl)-1-cyclopentyl-pyrazole-4-sulfonamide]

IC50 [1]: < 250 nM
EC50 [2]: 250 to 1000 nM
SMILES: Cc1ccc(NS(=O)(=O)c2cnn(CCO)c2)c2[nH]cc(C#N)c12 [Compound 25, N-(3-cyano-4-methyl-1H-indol-7-yl)-1-(2-hydroxyethyl)-1H-pyrazole-4-sulfonamide]

IC50 [1]: < 250 nM
EC50 [2]: < 250 nM
SMILES: Cc1ccc(NS(=O)(=O)c2cnn(CF)c2)c2[nH]cc(C#N)c12 [Compound 70, N-(3-cyano-4-methyl-1H-indol-7-yl)-1-(fluoromethyl)pyrazole-4-sulfonamide]

IC50 [1]: < 250 nM
EC50 [2]: 250 to 1000 nM
SMILES: Cc1ccc(NS(=O)(=O)c2cnn([C@H]3C[C@@H](O)C3)c2)c2[nH]cc(C#N)c12 [Compound 193, N-(3-cyano-4-methyl-1H-indol-7-yl)-1-(3-hydroxycyclobutyl)pyrazole-4-sulfonamide]

IC50 [1]: < 250 nM
EC50 [2]: 250 to 1000 nM
SMILES: N#Cc1c[nH]c2c(NS(=O)(=O)c3cnn([C@H]4C[C@@H](O)C4)c3)ccc(Cl)c12 [Compound 174, N-(4-chloro-3-cyano-1H-indol-7-yl)-1-(3-hydroxycyclobutyl)pyrazole-4-sulfonamide]

IC50 [1]: < 250 nM
EC50 [2]: < 250 nM
SMILES: C=C(CF)n1cc(S(=O)(=O)Nc2ccc(C)c3c(C#N)c[nH]c23)cn1 [Compound 80, N-(3-cyano-4-methyl-1H-indol-7-yl)-1-[1-(fluoromethyl)vinyl]pyrazole-4-sulfonamide]

IC50 [1]: < 250 nM
EC50 [2]: 250 to 1000 nM
SMILES: Cn1cc(S(=O)(=O)Nc2ccc(F)c3c(C#N)c[nH]c23)cn1 [Compound 65, N-(3-cyano-4-fluoro-1H-indol-7-yl)-1-methyl-pyrazole-4-sulfonamide]

IC50 [1]: < 250 nM
EC50 [2]: < 250 nM
SMILES: Cc1ccc(NS(=O)(=O)c2cnn(C(F)CO)c2)c2[nH]cc(C#N)c12 (centres unmarked) [Compound 297, N-(3-cyano-4-methyl-1H-indol-7-yl)-1-(1-fluoro-2-hydroxy-ethyl)pyrazole-4-sulfonamide]

IC50 [1]: < 250 nM
EC50 [2]: < 250 nM
SMILES: Cc1ccc(NS(=O)(=O)c2cnn(C[C@@H](C)CO)c2)c2[nH]cc(C#N)c12 [Compound 264, N-(3-cyano-4-methyl-1H-indol-7-yl)-1-[(2R)-3-hydroxy-2-methyl-propyl]pyrazole-4-sulfonamide]

IC50 [1]: < 250 nM
EC50 [2]: 250 to 1000 nM
SMILES: Cc1ccc(NS(=O)(=O)c2cnn(CCC(C)O)c2)c2[nH]cc(C#N)c12 (centres unmarked) [Compound 270, N-(3-cyano-4-methyl-1H-indol-7-yl)-1-(3-hydroxybutyl)pyrazole-4-sulfonamide]

IC50 [1]: < 250 nM
EC50 [2]: 250 to 1000 nM
SMILES: Cc1ccc(NS(=O)(=O)c2cnn(C3CCC(F)(F)CC3)c2)c2[nH]cc(C#N)c12 [Compound 86, N-(3-cyano-4-methyl-1H-indol-7-yl)-1-(4,4-difluorocyclohexyl)pyrazole-4-sulfonamide]
